Test results published in US20160030415A1, “TREATMENT AND PROPHYLAXIS OF KIDNEY DISEASES” (priority 2013, published 2016).

Tested on: Streptozotocin (STZ) induced diabetic rats
Experiment: Study 2: HCQ and its combination with Losartan in comparison with anti-diabetic control (Glimepiride) in renal damage
Type: in vivo, Wistar rats
Details: for Serum Creatinine after 8th week / Serum Creatinine after 8th week (% Control) / Total Serum Protein Levels after 8th week / Total Serum Protein Levels after 8th week (% Control): Glimepiride 8 mg/kg alone (antidiabetic control) or with Losartan 11 mg/kg and/or Hydroxychloroquine 45 mg/kg, oral once daily; for Total Protein in Kidney Homogenate (% Control) / Total Protein in Kidney Homogenate Mean / TBARS (% Control) / TBARS Mean: after 8th week, Glimepiride 8 mg/kg alone or with Losartan 11 mg/kg and/or Hydroxychloroquine 45 mg/kg; for TBARS (% Control) / TBARS Mean: kidney homogenate
Experimental: The Efficacy of the drugs was tested in two different models, one involving comparison with diabetic control (i.e. Diabetic Rats not treated with any medication) and the other involving comparison with the anti-diabetic control group (i.e. Diabetic rats administered Glimepiride) in two separate studies. 30 Wistar rats of either sex weighing 150-250 g were divided randomly into 5 groups consisting of 6 animals each. Diabetes was induced in rats by single administration of Streptozotocin (STZ)(55 mg/kg/i.p) dissolved in 0.1 M-citrate buffer, pH 4.5. Group 1 (normal control) consisted of normal rats that neither received streptozotocin nor any test drug; Group 2 served as Anti-Diabetic control wherein diabetic rats were treated with antidiabetic drug Glimepiride. Group 3 was diabetic rats treated with Losartan (11 mg/kg); Group 4 was diabetic rats treated with Hydroxychloroquine (45 mg/kg) and Group 5 was diabetic rats treated with combination of Hydroxychloroquine (45 mg/kg) and Losartan (11 mg/kg). The study drugs were dissolved/suspended in distilled water and administered orally once a day for eight weeks. The diabetes mellitus induced nephropathy was assessed by estimating the level of serum creatinine and total serum protein content after completion of eighth week of study. TBARS and Total Protein were measured as markers of renal oxidative stress in Kidney Homogenate after completion of eighth week of study.

Row | Structure (SMILES) | Serum Creatinine after 8th week [mg/dL] | Serum Creatinine after 8th week (% Control) | Total Serum Protein Levels after 8th week [g/dL] | Total Serum Protein Levels after 8th week (% Control) | Total Protein in Kidney Homogenate (% Control) | Total Protein in Kidney Homogenate Mean [µg/mL] | TBARS (% Control) | TBARS Mean [nM/mg]
1 | CCN(CCO)CCCC(C)Nc1ccnc2cc(Cl)ccc12 (stereo not shown) [Hydroxychloroquine, 2-[{4-[(7-chloroquinolin-4-yl)amino]pentyl}(ethyl)amino]ethanol] | 2.80 | (88.33) % Control | 5.39 | (112.24) % Control | (107.68) % Control | 1003.83 | (57.32) % Control | 0.47
2 | CCCCc1nc(Cl)c(CO)n1Cc1ccc(-c2ccccc2-c2nn[nH]n2)cc1 [Losartan] | 3.00 | (94.64) % Control | 5.45 | (113.21) % Control | (98.15) % Control | 909.50 | (76.83) % Control | 0.63
